The conditions of experiment [1]: mice, oral administration, vs. mice not administered; cited from earlier work.
The subject of experiment [2] is lipolysis. As to the kind of experiment: Blood metabolome evaluation study on human (placebo-controlled, randomized, double-blind, parallel-group; CE-TOF-MS). The experiment is classed as in vivo. The method, then:
In order to evaluate the influence of supplements containing ergothioneine on the human blood metabolome, a placebo-controlled, randomized, double-blind, parallel-group study was conducted on subjects including male and female adults (46 subjects in a test food group; 46 subjects in a control food group; 92 subjects in total). In this study, one capsule containing 20 mg ergothioneine (test food) or one capsule not containing ergothioneine (control food) was fed per day for four weeks. The blood metabolome of each subject was measured for pre-testing before starting the study (before starting ingestion of the test food or control food). After ingestion of the test food or control food for four weeks, the blood metabolome of each subject was measured again (testing on week 4). The blood metabolome was measured by a capillary electrophoresis time-of-flight mass spectrometry (CE-TOF-MS) available from Human Metabolome Technologies, Inc. Two types of food for evaluation, which were indistinguishable in appearance, flavor, and the like, were used. • Test food: capsule containing a test substance (20 mg L-ergothioneine) • Control food: capsule containing no test substance Each type of food for evaluation contained raw materials such as dextrin, hydroxypropyl cellulose, carrageenan, potassium chloride, and titanium oxide, in addition to the test substance. The control food was produced using the same raw materials used in the test food, except that the test substance (L-ergothioneine) was not added. For each of lipid metabolism-related metabolites and lipids of various kinds for which significant changes were observed by the blood metabolome measurement, a ratio (test food group/control food group) was determined from the average of measurements (blood concentrations) of the test food group and the control food group at the time of testing on week 4. FIG. 1 is a graph showing blood metabolome measurements of the test food group and the control food group at the time of testing on week 4 in the form of ratios (test food group/control food group). […]

Where [3] appears, read: L-ergothioneine ingested compared to no L-ergothioneine ingested.

With `C[N+](C)(C)[C@@H](Cc1c[nH]c(=S)[nH]1)C(=O)[O-]` [L-ergothioneine], in experiment [1], the peritesticular fat weight entry is reported as “lower” and the “triglyceride (neutral fat) level in plasma” value is recorded as “lower”. In addition, in experiment [2] (setting [3]), the “blood free fatty acid (e.g., palmitoleic acid) concentration” value is given as “increased” and the blood glycerol concentration result is “significantly increased”. Also, the promotion of lipolysis result in experiment [2] (human adults, 20 mg L-ergothioneine per day for four weeks, blood metabolome as a whole) is on record as “action to promote lipolysis”.

(Values after patent US20240189284A1, “COMPOSITION FOR PROMOTING LIPOLYSIS” (SUNTORY HOLDINGS LIMITED, priority 2021, published 2024).)
